The values below come from US4485110A, “β-Lactam compounds, and use” (priority 1980, dated 1984).

Experiment in all cases: Antibacterial activity, broth MIC
Common to all, as to assay type: cell-based

The subject of one assay is C. freundii E 8. The following applies: Citrobacter freundii. The source says: (§1) The antibacterial activity of a number of compounds described in the foregoing Examples against a number of organisms is shown in Tables 1 and 10.
A further assay deals with P. rettgeri WM 16. As to conditions: Providencia rettgeri, WM16, compound alone.
Description: as §1

For the next assay, the system named is S. faecalis I. The following applies: Enterococcus faecalis, read-out: Broth MIC.
Description: as §1

The test system of the next assay is P. vulgaris WO 91. As to conditions: Proteus vulgaris, WO91, compound alone.
Description: as §1

A further assay deals with P. morganii I 580. As to conditions: Morganella morganii, I580, compound alone.
Description: as §1

For another assay, the system named is S. sonnei MB 11967. As to conditions: Shigella sonnei, MB11967, compound alone.
Description: as §1

In a further assay the test system is E. coli ESS. As to conditions: Escherichia coli, read-out: Broth MIC.
Description: as §1

In a further assay the test system is S. aureus Oxford. The following applies: Staphylococcus aureus, compound alone.
Description: as §1

For another assay, the system named is E. cloacae N 1. As to conditions: Enterobacter cloacae, N1, compound alone.
Description: as §1

For the next assay, the system named is S. pneumoniae CN 33. The following applies: Streptococcus pneumoniae, CN33, compound alone.
Description: as §1

A further assay deals with S. marcescens US 20. As to conditions: Serratia marcescens.
Description: as §1

The next assay has as its system S. pyogenes CN 10. The following applies: Streptococcus pyogenes, CN10, compound alone.
Description: as §1

The next assay relates to E. coli 0111. The following applies: Escherichia coli, compound alone.
Description: as §1

In another assay the test system is S. aureus 1517. The following applies: Staphylococcus aureus, compound alone.
Description: as §1

Another assay deals with K. aerogenes A. As to conditions: Klebsiella aerogenes, read-out: Broth MIC.
Description: as §1

In a further assay the test system is P. mirabilis 977. The following applies: Proteus mirabilis, compound alone.
Description: as §1

Another assay has as its system P. aeruginosa A. The following applies: Pseudomonas aeruginosa, compound alone.
Description: as §1

For another assay, the system named is S. typhimurium CT 10. As to conditions: Salmonella enterica, compound alone.
Description: as §1

The test system of the next assay is E. coli JT 39 R^+. The following applies: Escherichia coli, read-out: Broth MIC.
Description: as §1

A further assay concerns B. subtilis A. The following applies: Bacillus subtilis, compound alone.
Description: as §1

For another assay, the system named is S. aureus Russell. The following applies: Staphylococcus aureus, compound alone.
Description: as §1

The mark [1] stands for this setting: E8, compound alone, broth, read-out: Broth MIC.
[2] abbreviates: US20, compound alone, broth, read-out: Broth MIC.

Structures are written as SMILES. Like-named read-outs stand apart in the source and are kept apart here. Some results are limits rather than exact numbers.

What is called MIC is the least concentration at which growth counts as inhibited. For `C/C=C1\C(=O)N2C(C(=O)O)=C(SCC)SC12` (racemic) [Compound 29, (5RS)-Sodium (E)-6-Ethylidene-2-ethylthiopenem-3-carboxylate], the MIC with C. freundii E 8 (setting [1]) was found to be 62 µg/mL; against P. rettgeri WM 16, 62 µg/mL; with S. faecalis I (compound alone, broth), 250 µg/mL; against P. vulgaris WO 91, 62 µg/mL; against P. morganii I 580 it was 31 µg/mL; against S. sonnei MB 11967, 62 µg/mL. Further, the MIC with E. coli ESS (compound alone, broth) was determined as 2 µg/mL; against S. aureus Oxford it was 2 µg/mL; with E. cloacae N 1, 31 µg/mL; with S. pneumoniae CN 33 it was 1 µg/mL; in the assay with S. marcescens US 20 (setting [2]), 62 µg/mL; in the assay on S. pyogenes CN 10 it was 4 µg/mL. For the same compound, the MIC against E. coli 0111 is 31 µg/mL; in the assay on S. aureus 1517 it was 16 µg/mL; with K. aerogenes A (compound alone, broth) it was 16 µg/mL; with P. mirabilis 977, 125 µg/mL; with P. aeruginosa A, greater than 500 µg/mL; against S. typhimurium CT 10, 62 µg/mL. The MIC in the assay on E. coli JT 39 R^+ (compound alone, broth) amounted to 31 µg/mL; against B. subtilis A it was 2 µg/mL.
Regarding `C/C=C1/C(=O)N2C(C(=O)O)=CSC12` (racemic) [Compound 40, (5RS)-Sodium(Z)-6-Ethylidenepenem-3-carboxylate], the MIC in the assay on C. freundii E 8 (setting [1]) is 125 µg/mL; with P. rettgeri WM 16, 125 µg/mL; in the assay with S. faecalis I (compound alone, broth) it was greater than 250 µg/mL; against P. vulgaris WO 91 it was 250 µg/mL; against P. morganii I 580, 250 µg/mL; in the assay on S. aureus Russell, 16 µg/mL. In addition, the MIC in the assay with S. sonnei MB 11967 is 62 µg/mL; in the assay on E. coli ESS (compound alone, broth), 16 µg/mL; against S. aureus Oxford it was 8 µg/mL; in the assay on E. cloacae N 1 it was 125 µg/mL; in the assay on S. pneumoniae CN 33 it was 31 µg/mL; in the assay with S. marcescens US 20 (setting [2]), 250 µg/mL. The MIC in the assay on S. pyogenes CN 10 is 8 µg/mL; against E. coli 0111, 62 µg/mL; in the assay with S. aureus 1517, 125 µg/mL; in the assay on K. aerogenes A (compound alone, broth), 62 µg/mL; against P. mirabilis 977, 250 µg/mL; against P. aeruginosa A, 250 µg/mL. The MIC in the assay with S. typhimurium CT 10 came out at 62 µg/mL; in the assay with E. coli JT 39 R^+ (compound alone, broth), 62 µg/mL; against B. subtilis A it was 31 µg/mL.
Consider `C/C=C1/C(=O)N2C(C(=O)O)=C(CCC)SC12` (racemic) [Compound 49, (5RS)-Sodium(Z)-6-Ethylidene-2-n-propylpenem-3-carboxylate], for which the MIC in the assay on C. freundii E 8 (E8, read-out: Broth MIC) worked out at 125 µg/mL; against P. rettgeri WM 16, 62 µg/mL; with S. faecalis I, 125 µg/mL; with P. vulgaris WO 91 it was 62 µg/mL; in the assay with P. morganii I 580, 31 µg/mL; in the assay on S. aureus Russell, 2 µg/mL. In addition, the MIC with S. sonnei MB 11967 was 62 µg/mL; in the assay with E. coli ESS (compound alone, broth), 1 µg/mL; in the assay on S. aureus Oxford, 1 µg/mL; against E. cloacae N 1, 62 µg/mL; with S. pneumoniae CN 33, no more than 0.2 µg/mL; in the assay on S. marcescens US 20 (US20, read-out: Broth MIC) it was 125 µg/mL. Besides, the MIC was 125 µg/mL against E. coli 0111; 62 µg/mL with S. aureus 1517; 31 µg/mL in the assay on K. aerogenes A (compound alone, broth); 62 µg/mL in the assay with P. mirabilis 977; greater than 250 µg/mL in the assay with P. aeruginosa A; 62 µg/mL against S. typhimurium CT 10. Also, the MIC with E. coli JT 39 R^+ (compound alone, broth) worked out at 62 µg/mL; in the assay on B. subtilis A, 1 µg/mL.
As to `CC=C1C(=O)N2C(C(=O)O)=C(SCCNC(C)=O)SC12` (racemic) [Compound 59, (5RS)-Sodium 2-(2-Acetamidoethylthio)-6-ethylidenepenem-3-carboxylate], the MIC was 25 µg/mL with C. freundii E 8 (setting [1]); 25 µg/mL against P. rettgeri WM 16; 100 µg/mL with S. faecalis I (compound alone, broth); 25 µg/mL against P. vulgaris WO 91; 25 µg/mL in the assay with P. morganii I 580; 3.1 µg/mL in the assay on S. aureus Russell. Also, the MIC against S. sonnei MB 11967 turned out to be 25 µg/mL; in the assay on E. coli ESS (compound alone, broth), 3.1 µg/mL; in the assay with S. aureus Oxford, 3.1 µg/mL; against E. cloacae N 1 it was 25 µg/mL; against S. pneumoniae CN 33, 0.2 µg/mL; in the assay with S. marcescens US 20 (setting [2]) it was 25 µg/mL. For the same compound, the MIC was no more than 0.1 µg/mL with S. pyogenes CN 10; 25 µg/mL against E. coli 0111; greater than 100 µg/mL against S. aureus 1517; 12.5 µg/mL in the assay with K. aerogenes A; 25 µg/mL against P. mirabilis 977; greater than 100 µg/mL in the assay with P. aeruginosa A. Also, the values for the MIC against S. typhimurium CT 10, with E. coli JT 39 R^+ and with B. subtilis A were 12.5 µg/mL, 12.5 µg/mL and 3.1 µg/mL, respectively.
On to `C/C=C1/C(=O)N2C(C(=O)O)=C(C)SC12` (racemic) [Compound 76, (5RS)-Sodium (Z)-Ethylidene-2-methylpenem-3-carboxylate], for which the MIC in the assay with C. freundii E 8 (setting [1]) was 100 µg/mL; in the assay on P. rettgeri WM 16 it was greater than 100 µg/mL; with S. faecalis I (compound alone, broth), greater than 100 µg/mL; against P. vulgaris WO 91 it was greater than 100 µg/mL; against P. morganii I 580 it was 100 µg/mL; with S. aureus Russell, 6.2 µg/mL. The MIC was 100 µg/mL in the assay with S. sonnei MB 11967; 6.2 µg/mL in the assay on E. coli ESS (compound alone, broth); 12.5 µg/mL in the assay with S. aureus Oxford; greater than 100 µg/mL in the assay on E. cloacae N 1; greater than 100 µg/mL with S. marcescens US 20 (setting [2]); 100 µg/mL against E. coli 0111. The MIC was 50 µg/mL against S. aureus 1517; greater than 100 µg/mL with K. aerogenes A (compound alone, broth); 100 µg/mL against P. mirabilis 977; 100 µg/mL against P. aeruginosa A; 100 µg/mL against S. typhimurium CT 10; 100 µg/mL in the assay with E. coli JT 39 R^+ (compound alone, broth). It took 25 µg/mL to inhibit growth in the assay on B. subtilis A (MIC).
Consider `CC=C1C(=O)N2C(C(=O)O)=C(Sc3ccccn3)SC12` (racemic) [Compound 99, (5RS)-Sodium 6-Ethylidene-2-(2-pyridylthio)penem-3-carboxylate], for which the MIC is 100 µg/mL with C. freundii E 8 (setting [1]); 25 µg/mL in the assay with P. rettgeri WM 16; greater than 100 µg/mL in the assay on S. faecalis I (compound alone, broth); 50 µg/mL against P. vulgaris WO 91; 50 µg/mL in the assay on P. morganii I 580; 6.2 µg/mL with S. aureus Russell. Also, the MIC with S. sonnei MB 11967 is 50 µg/mL; with E. coli ESS (compound alone, broth) it was 3.1 µg/mL; against S. aureus Oxford, 12.5 µg/mL; against E. cloacae N 1 it was 25 µg/mL; in the assay with S. marcescens US 20 (setting [2]) it was 50 µg/mL; with S. pyogenes CN 10 it was 1.6 µg/mL. The MIC is 100 µg/mL against E. coli 0111; 100 µg/mL against S. aureus 1517; 50 µg/mL with K. aerogenes A (compound alone, broth); 100 µg/mL in the assay with P. mirabilis 977; greater than 100 µg/mL in the assay with P. aeruginosa A; 50 µg/mL against S. typhimurium CT 10. Further, the MIC in the assay on E. coli JT 39 R^+ (compound alone, broth) was determined as 50 µg/mL; against B. subtilis A, 6.2 µg/mL.
`CC=C1C(=O)N2C(C(=O)O)=C(SCCN)SC12` (racemic) [Compound 101, (5RS)-Sodium 2-(2-aminoethylthio)-6-ethylidenepenem-3-carboxylate]: the MIC in the assay on C. freundii E 8 (setting [1]) was 100 µg/mL; against P. rettgeri WM 16, 100 µg/mL; with S. faecalis I (compound alone, broth), greater than 100 µg/mL; against P. vulgaris WO 91, 100 µg/mL; in the assay with P. morganii I 580, greater than 100 µg/mL; with S. aureus Russell, 3.1 µg/mL. In addition, the MIC in the assay on S. sonnei MB 11967 is 100 µg/mL; in the assay on E. coli ESS (compound alone, broth), 12.5 µg/mL; against S. aureus Oxford, 3.1 µg/mL; against E. cloacae N 1, 100 µg/mL; in the assay with S. marcescens US 20 (setting [2]), greater than 100 µg/mL; against S. pyogenes CN 10, 3.1 µg/mL. The minimum inhibitory concentration (MIC) in the assay on E. coli 0111 is 100 µg/mL; in the assay with S. aureus 1517, greater than 100 µg/mL; in the assay with K. aerogenes A (compound alone, broth), 100 µg/mL; in the assay on P. mirabilis 977 it was greater than 100 µg/mL; against P. aeruginosa A, greater than 100 µg/mL; against S. typhimurium CT 10 it was 100 µg/mL. Moreover, the MIC in the assay with E. coli JT 39 R^+ (compound alone, broth) is 100 µg/mL; in the assay on B. subtilis A, 12.5 µg/mL.
On to `CCSC1=C(C(=O)O)N2C(=O)C(=C(C)C)C2S1` (racemic) [Compound 129, (5RS)-Sodium 2-Ethylthio-6-isopropylidenepenem-3-carboxylate], for which the MIC in the assay with S. faecalis I (compound alone, broth) was 50 µg/mL; in the assay with S. aureus Russell, 12.5 µg/mL; with E. coli ESS, 12.5 µg/mL; in the assay with S. aureus Oxford it was 12.5 µg/mL; against S. pneumoniae CN 33 it was 1.6 µg/mL; with S. pyogenes CN 10 it was 0.4 µg/mL. The same compound displayed an MIC against B. subtilis A of 25 µg/mL.
